Experiments:
CT2A tumors = assay: Flow cytometry of tumor-derived immune cells, CT2A tumors; type: in vivo, C57BL/6 mice; conditions: for CD45+CD3+CD8+CD69+ activated T cells / CD45+CD3+CD8+IFN-γ+ activated T cells: CT2A tumors
Method: (§1) Mice and Intracranial Xenograft Tumor Models. Female C57BL/6 mice at 3 to 4 weeks of age were purchased from the Jackson Laboratory (#0000664). All animals were grouped by 5 mice per cage and maintained in IVC System (San Diego, CA) for a week before the experiment. All animal experiments were performed with the approval of the Institutional Animal Care and Use Committee (IACUC) at Northwestern University. The intracranial xenograft tumor models were established previously. In brief, mice were anesthetized by isoflurane through IMPAC6 Anesthesia System. Then a dental drill was used to open a small hole in the skull of mice 1.2 mm anterior and 3.0 mm lateral to the bregma. Mice were placed into the stereotactic apparatus, and 5 μL 005 GSC, CT2A, or GL261 cells in FBS-free culture medium were injected into the right caudate nucleus 3 mm below the surface of the brain using a 10 μL Hamilton syringe with an unbeveled 30-gauge needle. The incision was closed using Vetbond glue. Meloxicam (20 mg/kg, daily) was subcutaneously injected for pain relief for 3 days after surgery. Mice received the treatment with BAPN (2 g/L in drinking water) on day 4, SR9009 (100 mg/kg body weight, i.p.) daily for 10 days beginning at day 7 post-orthotopic injection, anti-PD1 (10 mg/kg body weight, i.p.) on days 11, 14, and 17 post-orthotopic injection, and/or clodronate liposomes (200 μL, once every 3 days) starting at day 4 post-orthotopic injection. Mice with neurological deficits or moribund appearance were sacrificed according to the IACUC protocol. At the end of the experiment, the brains of mice were collected, either fixed in 4% paraformaldehyde (PFA) (ThermoFisher Scientific, #J61899.AK) after transcardiac perfusion with PBS for optimal cutting temperature (OCT)-cryosectioning or processed using the percoll density gradient cell separation method to isolate tumor-derived immune cells for flow cytometry analysis.
(§2) Tumor-derived immune cells isolation. Mice with neurologic deficits or moribund appearance were sacrificed to harvest their brains. Immune cells in the brain tumors were isolated using the percoll density gradient cell separation method as previously described. In brief, after perfusion with PBS, brains were homogenized on ice with pre-cold 10 mL HBSS. Then cells were spun down at 1,500 rpm for 10 minutes at 4° C., and were resuspended in 30% Percoll (GE Healthcare, #17-0891-01). The solution was gently laid on top of the 70% Percoll and centrifuged at 1,200 g for 30 minutes at 4° C. with accelerator 7 and breaker 0. After removing myelin and debris, the interphase was collected and centrifuged at 1,500 rpm for 10 minutes at 4° C. The cell pellet was resuspended for further analysis.
Flow cytometry. The single-cell suspensions were incubated with fixable viability dye (Invitrogen, #5211229035) on ice for 10 minutes. After washing with FACS buffer, cells were incubated with the TruStain FcX (anti-mouse CD16/32) Antibody (BioLegend, #103132) and True-Stain Monocyte Blocker (BioLegend, #426102) in 5% BSA for 30 minutes on ice to block Fc receptors and non-specific binding of the cyanine acceptor fluorophores. Different antibody cocktails, including Percp/Cy5.5 anti-mouse CD45 (BioLegend, […]), AF488 anti-mouse CD3 (BioLegend, #100210), BV711 anti-mouse CD8 (BioLegend, #100747), PE/Cy7 anti-mouse CD69 (BioLegend, #104512), APC/Cy7 anti-mouse IFN-γ (BioLegend, #505850), PE/Cy7 anti-mouse/human CD11b (BioLegend, #101216), PE anti-mouse CD68 (BD Bioscience, #566386), and BV421 anti-mouse CX3CR1 (BD Bioscience, #567531) were added to the samples and incubated for 30 minutes on ice. After washing with FACS buffer, cells were incubated with fixation buffer (BioLegend, #420801) overnight. Samples were read through the BD FACSymphony or BD LSRFortessa flow cytometer and analyzed in FlowJo v10.8.1.

005 GSC tumors = assay: Flow cytometry of tumor-derived immune cells, 005 GSC tumors; type: in vivo, C57BL/6 mice
Method: as §1
as §2, with “The cell pellet was resuspended for further analysis.” left out
Flow cytometry. […] Samples were read through the BD FACSymphony or BD LSRFortessa flow cytometer and analyzed in FlowJo v10.8.1.

[1] = size matched CT2A tumors, BAPN 2 g/L in drinking water

| SMILES | CD45+CD3+CD8+CD69+ activated T cells (CT2A tumors) | CD45+CD3+CD8+IFN-γ+ activated T cells (CT2A tumors) | CD45highCD11b+CD68+ macrophages (CT2A tumors; [1]) | CD45lowCD11b+CX3CR1+ microglia (CT2A tumors; [1]) | CD45+CD3+CD8+CD69+ activated T cells (005 GSC tumors) | CD45+CD3+CD8+IFN-γ+ activated T cells (005 GSC tumors) |
| --- | --- | --- | --- | --- | --- | --- |
| N#CCCN [BAPN, β-aminopropionitrile] | Increases | Increases | decreased | increased | Increases | Increases |
| CCOC(=O)N1CCC(CN(Cc2ccc(Cl)cc2)Cc2ccc([N+](=O)[O-])s2)C1 (stereo not shown) [SR9009] | Increases | Increases | – | – | Increases | Increases |

Source: patent US20250186396A1, “COMPOSITIONS AND METHODS FOR THE TREATMENT OF GLIOBLASTOMA WITH A DUAL TARGETING ANTI-TUMOR COMPOSITION” (Northwestern University, priority 2023, published 2025)
